Data on 44 compounds can be found in US20250152574A1 (BIOGEN MA INC., priority 2022, published 2025).

The target of this assay is T1, EBP (Homo sapiens, UniProt Q15125).
T1 construct: HEK293T cells were utilized as the source of EBP enzyme; endogenous in cells; host or cells: HEK293T
As to the kind of experiment: EBP Functional Assay (EBP immunoaffinity LC-MS assay). It counts as biochemical. The conditions noted are these: HEK293T cells as source of EBP enzyme; substrate zymosterol-d5, 37° C. for 4 h; percent conversion to dehydrolathosterol-d5 by LC-APCI MRM MS. How it is done: The EBP immunoaffinity (IA) LC-MS assay measures the potency of small molecule inhibitors of EBP by quantifying their concentration-dependent changes in the enzyme's substrate and product using liquid chromatography atmospheric pressure chemical ionization multiple reaction monitoring mass spectrometry (LC-APCI MRM MS). HEK293T cells were utilized as the source of EBP enzyme. The enzyme was incubated with the small molecule inhibitors at variable concentrations for 30 min. Deuterated form of EBP substrate, zymosterol-d5 (Avanti Polar Lipids, Cat #700068P-1 mg), was then added and the plate was incubated at 37° C. for 4 h. Finally, the sterol isomers were extracted and injected to LC-APCI MRM MS. MRM transition used for the quantification for both zymosterol and […] (substrate and product of EBP enzymatic reaction, respectively) is 372.3-203.2, CE 30 and DP 80 in positive ion mode. Percent conversion of the zymosterol-d5 to dehydrolathosterol-d5 was used to derive IC50 curves. Tasin-1 (1′-[(4-Methoxyphenyl)sulfonyl]-4-methyl-1,4′-bipiperidine, CAS 792927-06-1) was used as the reference small molecule inhibitor.
Percent conversion versus the compound concentration data were fit to the following 4-parameter logistic model to generate IC50 curves: […]

Each structure is given as a SMILES string.

T1 sequence (Q15125 whole entry): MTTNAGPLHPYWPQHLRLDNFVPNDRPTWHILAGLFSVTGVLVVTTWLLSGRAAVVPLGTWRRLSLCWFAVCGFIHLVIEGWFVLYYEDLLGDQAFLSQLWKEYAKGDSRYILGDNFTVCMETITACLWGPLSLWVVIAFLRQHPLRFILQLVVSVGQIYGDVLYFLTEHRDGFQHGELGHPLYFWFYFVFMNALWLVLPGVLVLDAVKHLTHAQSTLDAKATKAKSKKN

The compound `O=S(=O)(c1cc(F)cc(F)c1)N1CCC2(CC1)CC(N1CC3(COC3)C1)CO2` (racemic) [Example 118, rac-8-((3,5-difluorophenyl)sulfonyl)-3-(2-oxa-6-azaspiro[3.3]heptan-6-yl)-1-oxa-8-azaspiro[4.5]decane] registered an IC50 of 100 to 250 nM.

`Cn1nc(C(F)(F)F)cc1S(=O)(=O)N1CCC2(CC1)CC(N1CCOCC1)CO2` (single isomer, unassigned) [Example 7, (R)- or (S)-8-((1-methyl-3-(trifluoromethyl)-1H-pyrazol-5-yl)sulfonyl)-3-morpholino-1-oxa-8-azaspiro[4.5]decane] gave an IC50 of 250 to 1500 nM.

`Cc1ccc(C#N)cc1S(=O)(=O)N1CCC2(CC1)C[C@H](N1CCOCC1)CO2` (single isomer, unassigned) [Example 15b] displayed an IC50 of 250 to 1500 nM.

As for `Cc1cc(S(=O)(=O)N2CCC3(CC[C@@H](N4CCOCC4)C3)CC2)n(C)n1` (single isomer, unassigned) [Example 22a], the IC50 fell in the range of 250 to 1500 nM.

Compound `Cc1cc(S(=O)(=O)N2CCC3(CC[C@H](N4CCOCC4)C3)CC2)n(C)n1` (single isomer, unassigned) [Example 22b] gave an IC50 of 100 to 250 nM.

For `O=S(=O)(c1ccc(OC(F)F)cc1)N1CCC2(CC1)C[C@H](N1CC[C@]3(CCOC3)C1)CO2` (single isomer, unassigned) [Example 30b], the IC50 was 250 to 1500 nM.

`Cc1ccc(S(=O)(=O)N2CCC3(CC2)C[C@@H](N2CC(O)C2)CO3)c(Cl)c1` (single isomer, unassigned) [Example 53a] showed an IC50 of less than 100 nM.

For the compound `Cc1ccc(S(=O)(=O)N2CCC3(CC2)C[C@H](N2CC(O)C2)CO3)c(Cl)c1` (single isomer, unassigned) [Example 53b], the IC50 fell in the range of 100 to 250 nM.

`Cn1nc(C2CC2)cc1S(=O)(=O)N1CCC2(CC1)C[C@@H](N1CC3(COC3)C1)CO2` (single isomer, unassigned) [Example 57a] yielded an IC50 of 250 to 1500 nM.

Take `Cn1nc(C2CC2)cc1S(=O)(=O)N1CCC2(CC1)C[C@H](N1CC3(COC3)C1)CO2` (single isomer, unassigned) [Example 57b]: the IC50 lay within 250 to 1500 nM.

In turn, `COc1ncc(Cl)cc1S(=O)(=O)N1CCC2(CC1)C[C@@H](N1CC3(COC3)C1)CO2` (single isomer, unassigned) [Example 63a] came in with an IC50 of less than 100 nM.

With `Cc1cc(S(=O)(=O)N2CCC3(CC[C@@H](N4CC5(COC5)C4)C3)CC2)n(C)n1` (single isomer, unassigned) [Example 68a], the IC50 was 100 to 250 nM.

Regarding `Cc1cc(S(=O)(=O)N2CCC3(CC[C@H](N4CC5(COC5)C4)C3)CC2)n(C)n1` (single isomer, unassigned) [Example 68b], the IC50 was 100 to 250 nM.

In turn, `Cc1cc(S(=O)(=O)N2CCC3(CC2)C[C@H](N2CC[C@@]4(CCOC4)C2)CO3)n(C)n1` (single isomer, unassigned) [Example 72a] registered an IC50 of 100 to 250 nM.

Regarding `N#Cc1cc(F)cc(S(=O)(=O)N2CCC3(CC[C@@H](N4CC5(COC5)C4)C3)CC2)c1` (single isomer, unassigned) [Example 85a], the IC50 is 100 to 250 nM.

`N#Cc1cc(F)cc(S(=O)(=O)N2CCC3(CC[C@H](N4CC5(COC5)C4)C3)CC2)c1` (single isomer, unassigned) [Example 85b] yielded an IC50 of less than 100 nM.

Turning to `O=S(=O)(c1ccc(OC(F)F)cc1)N1CCC2(CC[C@@H](N3C[C@H]4C[C@@H]3CO4)C2)CC1` (single isomer, unassigned) [Example 86a], the IC50 is less than 100 nM.

In the case of `O=S(=O)(c1ccc(OC(F)F)cc1)N1CCC2(CC[C@H](N3C[C@H]4C[C@@H]3CO4)C2)CC1` (single isomer, unassigned) [Example 86b], the IC50 is less than 100 nM.

`O=S(=O)(c1ccc(OC(F)F)cc1)N1CCC2(CC[C@@H](N3C[C@@H]4C[C@H]3CO4)C2)CC1` (single isomer, unassigned) [Example 90a] came in with an IC50 of 100 to 250 nM.

Compound `O=S(=O)(c1ccc(OC(F)F)cc1)N1CCC2(CC[C@H](N3C[C@@H]4C[C@H]3CO4)C2)CC1` (single isomer, unassigned) [Example 90b] came in with an IC50 of less than 100 nM.

In the case of `O=S(=O)(c1cc(F)cc(F)c1)N1CCC2(CC1)C[C@H](N1CC3(COC3)C1)CO2` (single isomer, unassigned) [Example 119a], the IC50 is less than 100 nM.

The compound `O=S(=O)(c1cc(F)cc(F)c1)N1CCC2(CC1)C[C@@H](N1CC3(COC3)C1)CO2` (single isomer, unassigned) [Example 119b] came in with an IC50 of 100 to 250 nM.

In the case of `CC1(O)CCN([C@@H]2COC3(CCN(S(=O)(=O)c4cc(C#N)ccc4F)CC3)C2)CC1` (single isomer, unassigned) [Example 141], the IC50 was in the range of 250 to 1500 nM.

Compound `Cc1cc(C(F)(F)F)ncc1S(=O)(=O)N1CCC2(CC1)CC(N1CCOCC1)CO2` (centres unmarked) [Example 4] had an IC50 of 250 to 1500 nM.

Regarding `O=S(=O)(c1ccc(F)cc1)N1CCC2(CC1)CC(N1CC3(COC3)C1)CO2` (centres unmarked) [Example 8], the IC50 lay within 250 to 1500 nM.

`N#Cc1ccc(S(=O)(=O)N2CCC3(CC2)CC(N2CC4(COC4)C2)CO3)c(Cl)c1` (centres unmarked) [Example 9]: the IC50 fell in the range of 250 to 1500 nM.

`COc1ccc(S(=O)(=O)N2CCC3(CCC(N4CC5(COC5)C4)C3)CC2)cc1F` (centres unmarked) [Example 10] showed an IC50 of 100 to 250 nM.

As for `N#Cc1cccc(S(=O)(=O)N2CCC3(CCC(N4CC5(COC5)C4)C3)CC2)c1` (centres unmarked) [Example 11], the IC50 fell in the range of 100 to 250 nM.

Consider `O=S(=O)(c1ccc(F)cc1)N1CCC2(CCC(N3CC4(COC4)C3)C2)CC1` (centres unmarked) [Example 12], for which the IC50 is less than 100 nM.

`N#Cc1cc(F)cc(S(=O)(=O)N2CCC3(CCC(N4CC5(COC5)C4)C3)CC2)c1` (centres unmarked) [Example 13] yielded a half-inhibitory concentration (IC50) of 100 to 250 nM.

For `O=S(=O)(c1ccc(OC(F)F)cc1)N1CCC2(CC1)CC(N1CCCCC1)CO2` (centres unmarked) [Example 14, 8-((4-(Difluoromethoxy)phenyl)sulfonyl)-3-(piperidin-1-yl)-1-oxa-8-azaspiro[4.5]decane], the 50% inhibitory concentration (IC50) was in the range of 250 to 1500 nM.

As to `Cc1cc(F)c(S(=O)(=O)N2CCC3(CC2)CC(N2CCOCC2)CO3)c(F)c1` (centres unmarked) [Example 16], the IC50 was 250 to 1500 nM.

`Cc1cc(C(F)(F)F)ccc1S(=O)(=O)N1CCC2(CC1)CC(N1CCOCC1)CO2` (centres unmarked) [Example 17, 8-((2-Methyl-4-(trifluoromethyl)phenyl)sulfonyl)-3-morpholino-1-oxa-8-azaspiro[4.5]decane] came in with an IC50 of 250 to 1500 nM.

Take `Cc1ccc(F)c(S(=O)(=O)N2CCC3(CC2)CC(N2CCOCC2)CO3)c1` (centres unmarked) [Example 18, 8-((2-Fluoro-5-methylphenyl)sulfonyl)-3-morpholino-1-oxa-8-azaspiro[4.5]decane]: the IC50 was 100 to 250 nM.

The compound `O=S(=O)(c1cc(F)ccc1F)N1CCC2(CC1)CC(N1CCOCC1)CO2` (centres unmarked) [Example 19, 8-((2,5-Difluorophenyl)sulfonyl)-3-morpholino-1-oxa-8-azaspiro[4.5]decane] showed an IC50 of 250 to 1500 nM.

As to `COc1ccc(S(=O)(=O)N2CCC3(CC2)CC(N2CCOCC2)CO3)c(C)n1` (centres unmarked) [Example 20, 8-((6-Methoxy-2-methylpyridin-3-yl)sulfonyl)-3-morpholino-1-oxa-8-azaspiro[4.5]decane], the IC50 lay within 250 to 1500 nM.

On to `Cc1cc(S(=O)(=O)N2CCC3(CCC(N4CCOCC4)C3)CC2)n(C)n1` (centres unmarked) [Example 21, 4-(8-((1,3-Dimethyl-1H-pyrazol-5-yl)sulfonyl)-8-azaspiro[4.5]decan-2-yl)morpholine], for which the IC50 lay in the range of 100 to 250 nM.

In turn, `O=S(=O)(c1ccc(OC(F)F)cc1)N1CCC2(CCC(N3CCOCC3)C2)CC1` (centres unmarked) [Example 23, 4-(8-((4-(Difluoromethoxy)phenyl)sulfonyl)-8-azaspiro[4.5]decan-2-yl)morpholine] gave an IC50 of 100 to 250 nM.

`Cn1nc2c(c1S(=O)(=O)N1CCC3(CCC(N4CCOCC4)C3)CC1)COCC2` (centres unmarked) [Example 24, 2-Methyl-3-((2-morpholino-8-azaspiro[4.5]decan-8-yl)sulfonyl)-2,4,6,7-tetrahydropyrano[4,3-c]pyrazole]: the IC50 fell in the range of 250 to 1500 nM.

`Cc1cnc(S(=O)(=O)N2CCC3(CCC(N4CCOCC4)C3)CC2)c(C)c1` (centres unmarked) [Example 25, 4-(8-((3,5-Dimethylpyridin-2-yl)sulfonyl)-8-azaspiro[4.5]decan-2-yl)morpholine] came in with an IC50 of 100 to 250 nM.

In turn, `COc1cc(S(=O)(=O)N2CCC3(CCC(N4CCOCC4)C3)CC2)n(C)n1` (centres unmarked) [Example 26, 4-(8-((3-Methoxy-1-methyl-1H-pyrazol-5-yl)sulfonyl)-8-azaspiro[4.5]decan-2-yl)morpholine] yielded an IC50 of less than 100 nM.

As for `O=S(=O)(c1ccc(OC(F)F)cc1)N1CCC2(CCC(N3C[C@H]4C[C@@H]3CO4)C2)CC1` (stereo partly drawn) [Example 27, (1R,4R)-5-(8-((4-(Difluoromethoxy)phenyl)sulfonyl)-8-azaspiro[4.5]decan-2-yl)-2-oxa-5-azabicyclo[2.2.1]heptane], the IC50 is less than 100 nM.

For `Cc1cc(C)c(S(=O)(=O)N2CCC3(CC2)CC(N2CCC4(CCOC4)C2)CO3)cn1` (centres unmarked) [Example 28, 8-((4,6-Dimethylpyridin-3-yl)sulfonyl)-3-(2-oxa-7-azaspiro[4.4]nonan-7-yl)-1-oxa-8-azaspiro[4.5]decane], the IC50 fell in the range of 250 to 1500 nM.

Turning to `Cc1cc(S(=O)(=O)N2CCC3(CC2)CC(N2CCC4(CCOC4)C2)CO3)n(C)n1` (centres unmarked) [Example 29, 8-((1,3-Dimethyl-1H-pyrazol-5-yl)sulfonyl)-3-(2-oxa-7-azaspiro[4.4]nonan-7-yl)-1-oxa-8-azaspiro[4.5]decane], the IC50 lay in the range of 250 to 1500 nM.
